In ChEMBL document CHEMBL1133690, “Discovery of a potent, orally bioavailable beta(3) adrenergic receptor agonist, (R)-N-[4-[2-[[2-hydroxy-2-(3-pyridinyl)ethyl]amino]ethyl]phenyl]-4-[4 -[4-(trifluoromethyl)phenyl]thiazol-2-yl]benzenesulfonamide” (J Med Chem, 2000):

Legend:
[1] = target: T1, Beta-3 adrenergic receptor (Homo sapiens, UniProt P13945); assay: In vitro functional efficacy as increased cAMP in chinese hamster ovary (CHO) cells expressing human beta-3 receptor; type: cell-based
Target sequence in this assay (P13945 whole entry): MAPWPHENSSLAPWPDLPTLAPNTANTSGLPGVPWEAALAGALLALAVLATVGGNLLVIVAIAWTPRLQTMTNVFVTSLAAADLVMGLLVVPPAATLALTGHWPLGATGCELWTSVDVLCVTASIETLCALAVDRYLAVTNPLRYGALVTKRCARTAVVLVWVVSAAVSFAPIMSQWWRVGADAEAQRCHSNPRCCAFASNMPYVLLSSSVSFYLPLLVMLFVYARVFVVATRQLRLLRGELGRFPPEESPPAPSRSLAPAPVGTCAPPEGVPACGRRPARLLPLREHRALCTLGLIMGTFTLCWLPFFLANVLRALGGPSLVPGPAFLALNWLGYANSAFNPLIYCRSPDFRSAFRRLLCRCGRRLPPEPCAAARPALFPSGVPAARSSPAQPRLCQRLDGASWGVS

[2] = Volume distribution (Vdss) was measured in dog; type: ADME, organism-based, Canis lupus familiaris; conditions: in vivo, read-out: Vdss
[3] = Area under curve determined in dogs after intravenous administration of 3 mg/kg; type: ADME, organism-based, Canis lupus familiaris; parameters: dose 3 mg/kg, route intravenous; conditions: dog, in vivo
[4] = target: T2, Beta-2 adrenergic receptor (Homo sapiens, UniProt P07550); assay: Agonistic efficacy at human beta 2 adrenergic receptor was assessed from adenylyl cyclase activation given as % of the maximum stimulation with isoproterenol; type: functional
Target sequence in this assay (P07550 whole entry, looked up): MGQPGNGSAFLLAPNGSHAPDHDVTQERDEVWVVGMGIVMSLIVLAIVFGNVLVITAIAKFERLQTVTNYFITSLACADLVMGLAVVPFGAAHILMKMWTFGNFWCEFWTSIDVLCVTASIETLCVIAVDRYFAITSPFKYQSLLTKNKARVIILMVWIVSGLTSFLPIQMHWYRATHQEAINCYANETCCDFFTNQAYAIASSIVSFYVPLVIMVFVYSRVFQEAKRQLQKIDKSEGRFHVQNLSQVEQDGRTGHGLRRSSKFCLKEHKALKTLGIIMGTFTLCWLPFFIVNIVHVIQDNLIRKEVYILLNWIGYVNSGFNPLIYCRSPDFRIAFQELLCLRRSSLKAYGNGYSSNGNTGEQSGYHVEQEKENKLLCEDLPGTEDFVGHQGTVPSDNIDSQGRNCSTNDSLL

[5] = target: T1, Beta-3 adrenergic receptor; assay: Agonistic efficacy at human beta 3 adrenergic receptor as percent adenylyl cyclase activation relative to isoproterenol; type: functional
Target sequence in this assay (P13945 whole entry, looked up): as the sequence (P13945 whole entry) above

[6] = Plasma clearance was measured in dog; type: ADME, organism-based, Canis lupus familiaris; conditions: read-out: Clp
[7] = Half life was measured in dog; type: ADME, organism-based, Canis lupus familiaris; conditions: in vivo
[8] = target: T2, Beta-2 adrenergic receptor; assay: In vitro functional efficacy in stimulating increase in cAMP in chinese hamster ovary (CHO) cells expressing the cloned human beta-2 receptor.; type: cell-based
Target sequence in this assay (P07550 whole entry): as the sequence (P07550 whole entry, looked up) above

[9] = target: T1, Beta-3 adrenergic receptor; type: cell-based, CHO
Target sequence in this assay (P13945 whole entry): as the sequence (P13945 whole entry) above

[10] = target: T3, Beta-1 adrenergic receptor (Homo sapiens, UniProt P08588); assay: In vitro functional efficacy in stimulating increase in cAMP in chinese hamster ovary (CHO) cells expressing the cloned human beta-1 receptor.; type: cell-based
Target sequence in this assay (P08588 whole entry): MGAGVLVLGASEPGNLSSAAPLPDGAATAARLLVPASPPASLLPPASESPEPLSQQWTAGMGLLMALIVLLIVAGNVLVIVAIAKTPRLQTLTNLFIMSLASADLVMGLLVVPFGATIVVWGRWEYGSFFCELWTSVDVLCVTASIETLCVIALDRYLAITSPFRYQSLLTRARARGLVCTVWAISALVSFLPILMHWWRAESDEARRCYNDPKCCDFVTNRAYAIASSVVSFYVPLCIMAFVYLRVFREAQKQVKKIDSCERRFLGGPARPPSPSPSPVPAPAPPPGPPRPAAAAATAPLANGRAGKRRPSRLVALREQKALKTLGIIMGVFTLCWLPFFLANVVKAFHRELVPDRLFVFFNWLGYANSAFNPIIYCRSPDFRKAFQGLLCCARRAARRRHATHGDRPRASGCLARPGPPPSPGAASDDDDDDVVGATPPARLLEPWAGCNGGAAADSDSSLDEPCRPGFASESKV

Monkey = assay: Effective dose for hyperglycerolemia producing increase in serum glycerol accompained by tachycardia in anesthetized rhesus monkeys; type: functional; conditions: Cercopithecidae, in Macaca mulatta
[11] = Area under curve determined in dogs after oral administration of 10 mg/kg; type: ADME, organism-based, Canis lupus familiaris; parameters: dose 10 mg/kg, route oral; conditions: dog, in vivo
[12] = Oral bioavailability in dog; type: ADME, organism-based, Canis lupus familiaris; conditions: in vivo
[13] = target: T2, Beta-2 adrenergic receptor; assay: biochemical
Target sequence in this assay (P07550 whole entry): as the sequence (P07550 whole entry, looked up) above
Description: Binding affinity was evaluated on chinese hamster ovary (CHO) cells expressing the cloned human beta-2 adrenergic receptor in the presence of [125I]- iodocyanopindolol.

[14] = Oral bioavailability in rat (dose 10 mg/kg p.o. and 3 mg/kg i.v.); type: ADME, organism-based; conditions: in vivo
[15] = target: T3, Beta-1 adrenergic receptor; assay: biochemical
Target sequence in this assay (P08588 whole entry): as the sequence (P08588 whole entry) above
Description: Binding affinity was evaluated on chinese hamster ovary (CHO) cells expressing the cloned human beta-1 adrenergic receptor in the presence of [125I]- iodocyanopindolol.

[16] = target: T3, Beta-1 adrenergic receptor; assay: Agonistic efficacy at human beta 1 adrenergic receptor was assessed from adenylyl cyclase activation given as % of the maximum stimulation with isoproterenol at 10 uM; type: functional
Target sequence in this assay (P08588 whole entry, looked up): as the sequence (P08588 whole entry) above

[17] = Volume of distribution (Vdss) was measured in dog; type: ADME, organism-based, Canis lupus familiaris; conditions: in vivo, read-out: Vdss

SMILES | EC50 [1] [µM] | Vd [2] [L/kg] | AUC [3] [µg·h/mL] | ACT [4] [%] | ACT [5] [%] | clearance [6] [L/h/kg] | half-life [7] [h] | EC50 [8] [µM] | IC50 [9] [µM] | EC50 [10] [µM] | AUC [11] [µg·h/mL] | bioavailability [12] [%] | IC50 [13] [µM] | bioavailability [14] [%] | IC50 [15] [µM] | ACT [16] [%] | Vd [17] [L/kg] | ED50 (Monkey) [mg/kg]
O=S(=O)(Nc1ccc(CCNC[C@H](O)c2cccnc2)cc1)c1ccc(-c2nc(-c3ccc(OC(F)(F)F)cc3)cs2)cc1 | 0.0043 | 12.8 | 3.53 | 18 | 93 | 0.858 | 10.3 | 1.4 | 0.03 | 2.7 | 6.28 | 53 | 1.2 | 7 | 8.4 | 24 |  | 0.14
O=S(=O)(Nc1ccc(CCNC[C@H](O)c2cccnc2)cc1)c1ccc(-c2nc(-c3cccc(F)c3F)cs2)cc1 | 0.0076 |  |  |  | 99 |  |  |  |  |  |  |  | 0.76 |  | 2.6 | 6 |  | 
O=S(=O)(Nc1ccc(CCNC[C@H](O)c2cccnc2)cc1)c1ccc(-c2nc(-c3ccccc3C(F)(F)F)cs2)cc1 | 0.053 |  |  |  | 82 |  |  |  |  |  |  |  | 1.8 |  | 1.9 |  |  | 

Further lines, with some results ahead:

EC50 [1] [µM] | Vd [2] [L/kg] | AUC [3] [µg·h/mL] | ACT [4] [%] | ACT [5] [%] | clearance [6] [L/h/kg] | half-life [7] [h] | EC50 [8] [µM] | IC50 [9] [µM] | EC50 [10] [µM] | AUC [11] [µg·h/mL] | bioavailability [12] [%] | IC50 [13] [µM] | bioavailability [14] [%] | IC50 [15] [µM] | ACT [16] [%] | Vd [17] [L/kg] | SMILES | ED50 (Monkey) [mg/kg]
0.0063 | 14.1 | 2.47 |  | 100 | 1.23 | 8 |  |  |  | 2.23 | 27 | 5 |  | 2 | 20 |  | O=S(=O)(Nc1ccc(CCNC[C@H](O)c2cccnc2)cc1)c1ccc(-c2nc(-c3cc(F)c(F)c(F)c3)cs2)cc1 | 
0.019 |  |  |  | 87 |  |  |  |  |  |  |  | 2.6 |  | 2.5 | 7 |  | O=S(=O)(Nc1ccc(CCNC[C@H](O)c2cccnc2)cc1)c1ccc(-c2nc(-c3ccc(F)cc3F)cs2)cc1 | 
 | 31.3 | 1.93 |  | 94 | 1.61 | 13.5 | 2.4 | 0.046 | 4.8 | 2.27 | 38 |  | 17 |  | 24 |  | O=S(=O)(Nc1ccc(CCNC[C@H](O)c2cccnc2)cc1)c1ccc(-c2nc(-c3ccc(C(F)(F)F)cc3)cs2)cc1 | 0.26
0.0071 |  | 1.72 | 12 | 92 | 1.76 | 7.5 | 1.8 | 0.02 | 2.6 | 2.07 | 36 | 1.7 |  | 1.7 |  | 19 | O=S(=O)(Nc1ccc(CCNC[C@H](O)c2cccnc2)cc1)c1ccc(-c2nc(-c3ccc(F)c(F)c3)cs2)cc1 | 
0.0069 |  |  |  | 100 |  |  |  |  |  |  |  | 0.98 |  | 1.8 | 17 |  | O=S(=O)(Nc1ccc(CCNC[C@H](O)c2cccnc2)cc1)c1ccc(-c2nc(-c3cccc(C(F)(F)F)c3)cs2)cc1 | 
